Reference: US7566712B2, “Biaryl piperazinyl-pyridine analogues” (Neurogen Corporation, priority 2003, dated 2009)
One block for each compound: values may come before it.

Biological target: T1, human capsaicin receptor (Homo sapiens, UniProt Q8NER1)
T1 construct: pBK-CMV expression construct encoding the full length human capsaicin receptor; expressed in transfected cells
Assay: Calcium mobilization assay, determination of antagonist activity (Example 6)
Assay type: cell-based
Conditions: Table II
How it was run: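 HEK293 clonal lines stably expressing full-length human capsaicin receptor, loaded with Fluo-3 AM in KRH buffer pH 7.4, 1–2 h at 37 °C. Compounds (1–5 μM final) preincubated 0.5–6 h at room temperature, then capsaicin at its EC50 added. FLIPR/Fluoroskan calcium signal; IC50 as 50% decrease of capsaicin response.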

[1] = IC50 determined as described in Example 6
[2] = determined as described in Example 6 (calcium mobilization, antagonist activity)
[3] = determined as described in Example 6 (antagonist activity), "*" = 1 micromolar or less
[4] = IC50 determined as described in Example 6 (antagonist activity, calcium mobilization)

T1 sequence (Q8NER1 whole entry): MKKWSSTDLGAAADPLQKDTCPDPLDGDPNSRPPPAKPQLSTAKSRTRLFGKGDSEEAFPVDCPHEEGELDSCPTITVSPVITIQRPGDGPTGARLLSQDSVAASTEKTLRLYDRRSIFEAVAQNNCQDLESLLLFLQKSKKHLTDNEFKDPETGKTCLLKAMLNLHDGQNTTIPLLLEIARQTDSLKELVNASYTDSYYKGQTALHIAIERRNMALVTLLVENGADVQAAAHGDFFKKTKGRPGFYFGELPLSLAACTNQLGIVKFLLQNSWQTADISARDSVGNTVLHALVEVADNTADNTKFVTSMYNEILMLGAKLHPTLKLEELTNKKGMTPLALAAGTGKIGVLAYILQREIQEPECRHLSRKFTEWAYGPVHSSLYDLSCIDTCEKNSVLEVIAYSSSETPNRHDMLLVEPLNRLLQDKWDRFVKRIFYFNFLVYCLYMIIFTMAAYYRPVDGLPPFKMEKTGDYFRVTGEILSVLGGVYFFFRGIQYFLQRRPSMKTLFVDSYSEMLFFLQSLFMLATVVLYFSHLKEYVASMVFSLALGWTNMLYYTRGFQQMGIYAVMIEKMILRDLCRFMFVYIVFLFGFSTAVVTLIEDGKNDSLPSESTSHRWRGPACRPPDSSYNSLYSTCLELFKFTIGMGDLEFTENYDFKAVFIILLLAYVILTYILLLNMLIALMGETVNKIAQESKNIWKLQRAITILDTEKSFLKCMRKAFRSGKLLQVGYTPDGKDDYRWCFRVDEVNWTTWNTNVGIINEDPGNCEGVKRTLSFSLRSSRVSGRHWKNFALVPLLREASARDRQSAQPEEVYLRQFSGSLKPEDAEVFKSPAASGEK

Compound: Cc1cccnc1N1CCN(c2cc(-c3cccc(OC(F)(F)F)c3)nc(N3CCOCC3)n2)[C@H](C)C1 [Example 533, 4-{4-[(2R)-2-methyl-4-(3-methylpyridin-2-yl)piperazin-1-yl]-6-[3-(trifluoromethoxy)phenyl]pyrimidin-2-yl}morpholine]
- IC50 [1]: ≤ 1 µM

Compound: C[C@@H]1CN(c2ncccc2Cl)CCN1c1cc(-c2ccc(F)c(Cl)c2)nc(S(=O)(=O)Cc2ccccc2)n1 [Example 723, 2-(benzylsulfonyl)-4-(3-chloro-4-fluorophenyl)-6-[(2R)-4-(3-chloropyridin-2-yl)-2-methylpiperazin-1-yl]pyrimidine]
- IC50 [2]: ≤ 1 µM

Compound: Cc1ccc(-c2cc(N3CCN(c4ncccc4C)C[C@H]3C)nc(N3CCOCC3)n2)cc1F [Example 494, 4-{4-(3-fluoro-4-methylphenyl)-6-[(2R)-2-methyl-4-(3-methylpyridin-2-yl)piperazin-1-yl]pyrimidin-2-yl}morpholine]
- IC50 [1]: ≤ 1 µM

Compound: CC1CCCN1c1nc(-c2ccc(F)c(Cl)c2)cc(N2CCN(c3ncccc3C(F)(F)F)CC2)n1 (centres unmarked) [Example 609, 4-(3-chloro-4-fluorophenyl)-2-(2-methylpyrrolidin-1-yl)-6-{4-[3-(trifluoromethyl)pyridin-2-yl]piperazin-1-yl}pyrimidine]
- IC50 [2]: ≤ 1 µM

Compound: Cc1ccc(-c2nc(N3CCOCC3)nc(N3CCN(c4ccccn4)CC3)n2)c2ccccc12 [Example 276, 2-(4-methyl-1-naphthyl)-4-morpholin-4-yl-6-(4-pyridin-2-ylpiperazin-1-yl)-1,3,5-triazine]
- IC50 (determined as described in Example 6, class symbol): ≤ 1 µM

Compound: CCC1CCCCN1c1nc(-c2ccc(F)c(Cl)c2)cc(N2CCN(c3ncccc3C(F)(F)F)CC2)n1 (centres unmarked) [Example 613, 4-(3-chloro-4-fluorophenyl)-2-(2-ethylpiperidin-1-yl)-6-{4-[3-(trifluoromethyl)pyridin-2-yl]piperazin-1-yl}pyrimidine]
- IC50 [2]: ≤ 1 µM

Compound: O=S(=O)(Cc1ccccc1)c1nc(-c2ccc(F)c(Cl)c2)cc(N2CCN(c3ncccc3C(F)(F)F)CC2)n1 [Example 650, 2-(benzylsulfonyl)-4-(3-chloro-4-fluorophenyl)-6-{4-[3-(trifluoromethyl)pyridin-2-yl]piperazin-1-yl}pyrimidine]
- IC50 [2]: ≤ 1 µM

Compound: Cc1cc(-c2cc(N3CCN(c4ncccc4C(F)(F)F)C[C@H]3C)nc(N3CCOCC3)n2)ccc1F [Example 497, 4-(4-(4-fluoro-3-methylphenyl)-6-{(2R)-2-methyl-4-[3-(trifluoromethyl)pyridin-2-yl]piperazin-1-yl}pyrimidin-2-yl)morpholine]
- IC50 [1]: ≤ 1 µM

Compound: CC(C)c1cc(-c2cc(N3CCN(c4ncccc4C(F)(F)F)CC3)nc(N3CCOCC3)n2)ccn1 [Example 592, 4-(4-(2-isopropylpyridin-4-yl)-6-{4-[3-(trifluoromethyl)pyridin-2-yl]piperazin-1-yl}pyrimidin-2-yl)morpholine]
- IC50 [2]: ≤ 1 µM

Compound: COc1cccc(-c2cc(N3CCN(c4ncccc4Cl)C[C@H]3C)nc(N3CCOCC3)n2)c1 [Example 526, 4-[4-[(2R)-4-(3-chloropyridin-2-yl)-2-methylpiperazin-1-yl]-6-(3-methoxyphenyl)pyrimidin-2-yl]morpholine]
- IC50 [1]: ≤ 1 µM

Second part, the compound after the results:

- IC50 [3]: ≤ 1 µM
Compound: C[C@@H]1CN(c2ncccc2Cl)CCN1c1cc(-c2ccc(Cl)c(F)c2)nc(N2CCCC2)n1 [Example 833, 4-(4-chloro-3-fluorophenyl)-6-[(2R)-4-(3-chloropyridin-2-yl)-2-methylpiperazin-1-yl]-2-pyrrolidin-1-ylpyrimidine]

- IC50 [4]: ≤ 1 µM
Compound: C[C@@H]1CN(c2ncccc2F)CCN1c1cc(-c2ccc(F)c(F)c2)nc(N2CCOC[C@@H]2C)n1 [Example 1006, (3S)-4-{4-(3,4-difluorophenyl)-6-[(2R)-4-(3-fluoropyridin-2-yl)-2-methylpiperazin-1-yl]pyrimidin-2-yl}-3-methylmorpholine]

- IC50 [4]: ≤ 1 µM
Compound: C[C@@H]1CN(c2ncccc2Cl)CCN1c1cc(-c2ccc(F)c(Cl)c2)nc(N2CCOC[C@@H]2C)n1 [Example 1000, (3S)-4-{4-(3-ohloro-4-fluorophenyl)-6-[(2R)-4-(3-chloropyridin-2-yl)-2-methylpiperazin-1-yl]pyrimidin-2-yl}-3-methylmorpholine]

- IC50 [2]: ≤ 1 µM
Compound: CC(CO)N(C)c1nc(-c2ccc(F)c(Cl)c2)cc(N2CCN(c3ncccc3C(F)(F)F)CC2)n1 (centres unmarked) [Example 758, 2-[(4-(3-chloro-4-fluorophenyl)-6-{4-[3-(trifluoromethyl)pyridin-2-yl]piperazin-1-yl}pyrimidin-2-yl)(methyl)amino]propan-1-ol]

- IC50 [3]: ≤ 1 µM
Compound: C[C@@H]1CN(c2nccnc2Cl)CCN1c1cc(-c2ccc(F)c(F)c2)nc(N2CCOCC2)n1 [Example 822, 4-[4-[(2R)-4-(3-chloropyrazin-2-yl)-2-methylpiperazin-1-yl]-6-(3,4-difluorophenyl)pyrimidin-2-yl]morpholine]

- IC50 [3]: ≤ 1 µM
Compound: Cc1cc(-c2cc(N3CCCC3C)nc(N3CCN(c4ncccc4Cl)C[C@@H]3C)n2)ccc1F (some centres unmarked) [Example 917, 2-[4-(3-chloropyridin-2-yl)-2-methylpiperazin-1-yl]-4-(4-fluoro-3-methylphenyl)-6-(2-methylpyrrolidin-1-yl)pyrimidine]

- IC50 [3]: ≤ 1 µM
Compound: CC1CCCN1c1nc(-c2ccc(F)c(Cl)c2)cc(N2CCN(c3ncc(Cl)cc3Cl)C[C@H]2C)n1 (stereo in doubt) [Example 954, 4-(3-chloro-4-fluorophenyl)-6-[4-(3,5-dichloropyridin-2-yl)-2-methylpiperazin-1-yl]-2-(2-methylpyrrolidin-1-yl)pyrimidine]

- IC50 [3]: ≤ 1 µM
Compound: C[C@@H]1CCCN1c1cc(-c2ccc(F)c(Cl)c2)nc(N2CCN(c3ncccc3Cl)C[C@H]2C)n1 [Example 941, 4-(3-chloro-4-fluorophenyl)-2-[(2R)-4-(3-chloropyridin-2-yl)-2-methylpiperazin-1-yl]-6-[(2R)-2-methylpyrrolidin-1-yl]pyrimidine]

- IC50 [4]: ≤ 1 µM
Compound: CNc1ccc(Cl)c(N2CCN(c3cc(-c4ccc(F)cc4)nc(N4CCCC4C)n3)[C@H](C)C2)n1 (some centres unmarked) [Example 1012, 5-chloro-6-{4-[6-(4-fiuorophenyl)-2-(2-methylpyrrolidin-1-yl)pyrimidin-4-yl]-3-methylpiperazin-1-yl}-N-methylpyridin-2-amine]

- IC50 [4]: ≤ 1 µM
Compound: Cc1cccnc1N1CCN(c2cc(-c3ccc(F)c(Cl)c3)nc(N(C)[C@@H](C)CO)n2)CC1 [Example 1016, (2S)-2-[{4-(3-chloro-4-fluorophenyl)-6-[4-(3-methylpyridin-2-yl)piperazin-1-yl]pyrimidin-2-yl}(methyl)amino]propan-1-ol]

- IC50 [3]: ≤ 1 µM
Compound: CC1CCCN1c1nc(-c2ccc(F)c(F)c2)cc(N2CCN(c3nccnc3Cl)C[C@H]2C)n1 (some centres unmarked) [Example 821, 4-[4-(3-chloropyrazin-2-yl)-2-methylpiperazin-1-yl]-6-(3,4-difluorophenyl)-2-(2-methylpyrrolidin-1-yl)pyrimidine]

- IC50 [3]: ≤ 1 µM
Compound: C[C@@H]1CN(c2ncccc2Cl)CCN1c1cc(-c2ccc(C#N)cc2)nc(N2CCCC2)n1 [Example 860, 4-{6-[(2R)-4-(3-chloropyridin-2-yl)-2-methylpiperazin-1-yl]-2-pyrrolidin-1-ylpyrimidin-4-yl}benzonitrite]

- IC50 [3]: ≤ 1 µM
Compound: COc1ncc(Cl)c(N2CCN(c3cc(-c4ccc(F)cc4)nc(Cl)n3)[C@H](C)C2)n1 [Example 965, 5-chloro-4-{(3R)-4-[2-chloro-6-(4-fluorophenyl)pyrimidin-4-yl]-3-methylpiperazin-1-yl}-2-methoxypyrimidine]
